# Test results as given in patent publication US20090018111A1, “Novel Antimicrobial Medicament” (priority 2004, published 2009).
# Like-named read-outs stand apart in the source and are kept apart here.
# Tests used:
# Experiment in all cases: Sensitivity test (agar dilution)
# E. coli ML1410 = type: cell-based, Escherichia coli; details: Escherichia coli
# Experimental: (§1) The antibacterial activities were tested against various 18 bacteria (27 standard strains) which are representative bacteria caused clinically infectious disease (Staphylococcus aureus 3 strains, Staphylococcus epidermidis 1 strain, Micrococcus luteus 1 strain, Streptococcus pyogenes 1 strain, Enterococcus faecalis 1 strain, Enterococcus faecium 1 strain, Bacillus subtilis 1 strain, Escherichia coli 3 strains, Klebsiella pneumoniae 1 strain, Proteus mirabilis 1 strain, Proteus vulgaris 2 strains, Pseudomonas aeruginosa 3 strains, Serratia marcescens 2 strains, Enterobacter aerogenes 1 strain, Stenotrophomonas maltophilia 1 strain, Enterobacter cloacae 1 strain, Citrobacter freundii 1 strain, Moraxella catarrhalis 2 strains).
# (§2) According to the standard method of Japan Chemotherapeutic Society (Chemotherapy, vol. […], p 76-79 (1981)) the test was carried out using the agar dilution method. After dissolving test samples in distilled water, agar medium containing the test samples was prepared in such a manner that the final concentration became twice serial dilution by pouring serially diluted combination drug solution or a single drug solution into agar medium. As agar medium was used Mueller Hinton Agar medium (MHA). Then, each strain was cultivated over night at 37° C. in an incubator and suspended in buffered saline solution with gelatin (BSG) in the concentration of about 10^6 CFU/ml. The suspension (about 5 μl) containing test strains was inoculated to the medium containing the test samples by Micro Planter.
# (§3) When the sample is subjected to sensitivity test, this mixed solution was diluted by twice serial dilution method.
# (§4) Furthermore, when the drug is solely used, each test sample was used as it is, and diluted by twice serial dilution method from the maximum concentration to the minimum concentration.
# (§5) FIC index based on MIC value was calculated. […] Namely, when FIC index calculated by the following formula is equal or less than 1, the enhanced effect of the combination drug in said ratio is considered as positive. When FIC index is over 1, the enhanced effect of the combination drug in said ratio is considered as negative.
# (§6) Formula of FIC index: FIC index=(MIC of Drug A in combination/MIC of Drug A alone)+(MIC of Drug B in combination/MIC of Drug B alone) N.C. in tables means being not calculated.
# E. coli NIHJ JC-2 = type: cell-based, Escherichia coli; details: Escherichia coli
# Experimental: as §1, §2, §3, §4, §5, §6
# S. epidermidis IAM1296 = type: cell-based, Staphylococcus epidermidis
# Experimental: as §1, §2, §3, §4, §5, §6
# E. faecalis ATCC19433 = type: cell-based, Enterococcus faecalis; details: Enterococcus faecalis
# Experimental: as §1, §2, §3, §4, §5, §6
structure (smiles),measurement,setting,value
"C[C@H]1C=C(c2csc(SC3=C(C(=O)O)N4C(=O)[C@H]([C@@H](C)O)[C@H]4[C@H]3C)n2)CN1 [SM, (4R,5S,6S)-6-[(1R)-1-Hydroxyethyl]-4-methyl-3-({4-[(5S)-5-methyl-2,5-dihydro-1H-pyrrol-3-yl]-1,3-thiazol-2-yl}sulfanyl)-7-oxo-1-azabicyclo[3.2.0]hept-2-ene-2-carboxylic acid]",MIC,"E. coli ML1410; ML1410, Concomitant (MEPM:SM = 1:4), read-out: MIC",≤ 0.063 µg/mL
same,MIC,"E. coli ML1410; ML1410, Concomitant (PAPM:SM = 1:1), E. coli ML1410, read-out: MIC concomitant",0.125 µg/mL
same,MIC,"E. coli ML1410; ML1410, Concomitant (PIPC:SM = 1:1), E. coli ML1410, read-out: MIC concomitant",0.125 µg/mL
same,MIC,"E. coli ML1410; ML1410, Concomitant drug (MEPM:SM = 2:1), read-out: MIC",≤ 0.008 µg/mL
same,MIC,"E. coli ML1410; ML1410, alone, read-out: MIC",0.25 µg/mL
same,MIC,"E. coli ML1410; ML1410, drug alone, E. coli ML1410, read-out: MIC alone",0.25 µg/mL
same,MIC,"E. coli NIHJ JC-2; NIHJJC2, Concomitant (AZT:SM = 1:1), E. coli NIHJ JC-2, read-out: MIC concomitant",0.063 µg/mL
same,MIC,"E. coli NIHJ JC-2; NIHJJC2, Concomitant (BIPM:SM = 1:1), E. coli NIHJ JC-2, read-out: MIC concomitant",0.031 µg/mL
same,MIC,"E. coli NIHJ JC-2; NIHJJC2, Concomitant (CAZ:SM = 1:1), E. coli NIHJ JC-2, read-out: MIC concomitant",0.063 µg/mL
same,MIC,"E. coli NIHJ JC-2; NIHJJC2, Concomitant (CPFX:SM = 1:1), E. coli NIHJ JC-2, read-out: MIC concomitant",≤ 0.002 µg/mL
same,MIC,"E. coli NIHJ JC-2; NIHJJC2, Concomitant (DRPM:SM = 1:1), E. coli NIHJ JC-2, read-out: MIC concomitant",0.016 µg/mL
same,MIC,"E. coli NIHJ JC-2; NIHJJC2, Concomitant (IPM:SM = 1:1), read-out: MIC",0.063 µg/mL
same,MIC,"E. coli NIHJ JC-2; NIHJJC2, Concomitant (MEPM:SM = 1:1), read-out: MIC",≤ 0.016 µg/mL
same,MIC,"E. coli NIHJ JC-2; NIHJJC2, Concomitant (MEPM:SM = 1:2), read-out: MIC",≤ 0.031 µg/mL
same,MIC,"E. coli NIHJ JC-2; NIHJJC2, Concomitant (MEPM:SM = 1:4), read-out: MIC",≤ 0.063 µg/mL
same,MIC,"E. coli NIHJ JC-2; NIHJJC2, Concomitant (PAPM:SM = 1:1), E. coli NIHJ JC-2, read-out: MIC concomitant",0.063 µg/mL
same,MIC,"E. coli NIHJ JC-2; NIHJJC2, Concomitant (PIPC:SM = 1:1), E. coli NIHJ JC-2, read-out: MIC concomitant",0.063 µg/mL
same,MIC,"E. coli NIHJ JC-2; NIHJJC2, Concomitant drug (MEPM:SM = 2:1), read-out: MIC",≤ 0.008 µg/mL
same,MIC,"E. coli NIHJ JC-2; NIHJJC2, alone, read-out: MIC",0.125 µg/mL
same,MIC,"E. coli NIHJ JC-2; NIHJJC2, drug alone, E. coli NIHJ JC-2, read-out: MIC alone",0.125 µg/mL
same,MIC,"S. epidermidis IAM1296; Staphylococcus epidermidis, IAM1296, Concomitant (AZT:SM = 1:1), S. epidermidis IAM1296, read-out: MIC concomitant",0.031 µg/mL
same,MIC,"S. epidermidis IAM1296; Staphylococcus epidermidis, IAM1296, Concomitant (BIPM:SM = 1:1), S. epidermidis IAM1296, read-out: MIC concomitant",0.031 µg/mL
same,MIC,"S. epidermidis IAM1296; Staphylococcus epidermidis, IAM1296, Concomitant (CAZ:SM = 1:1), S. epidermidis IAM1296, read-out: MIC concomitant",0.031 µg/mL
same,MIC,"S. epidermidis IAM1296; Staphylococcus epidermidis, IAM1296, Concomitant (CPFX:SM = 1:1), S. epidermidis IAM1296, read-out: MIC concomitant",0.031 µg/mL
same,MIC,"S. epidermidis IAM1296; Staphylococcus epidermidis, IAM1296, Concomitant (DRPM:SM = 1:1), S. epidermidis IAM1296, read-out: MIC concomitant",0.031 µg/mL
same,MIC,"S. epidermidis IAM1296; Staphylococcus epidermidis, IAM1296, Concomitant (IPM:SM = 1:1), read-out: MIC",0.016 µg/mL
same,MIC,"S. epidermidis IAM1296; Staphylococcus epidermidis, IAM1296, Concomitant (MEPM:SM = 1:1), read-out: MIC",≤ 0.016 µg/mL
same,MIC,"S. epidermidis IAM1296; Staphylococcus epidermidis, IAM1296, Concomitant (MEPM:SM = 1:2), read-out: MIC",≤ 0.031 µg/mL
same,MIC,"S. epidermidis IAM1296; Staphylococcus epidermidis, IAM1296, Concomitant (MEPM:SM = 1:4), read-out: MIC",≤ 0.063 µg/mL
same,MIC,"S. epidermidis IAM1296; Staphylococcus epidermidis, IAM1296, Concomitant (PAPM:SM = 1:1), S. epidermidis IAM1296, read-out: MIC concomitant",0.016 µg/mL
same,MIC,"S. epidermidis IAM1296; Staphylococcus epidermidis, IAM1296, Concomitant (PIPC:SM = 1:1), S. epidermidis IAM1296, read-out: MIC concomitant",0.016 µg/mL
same,MIC,"S. epidermidis IAM1296; Staphylococcus epidermidis, IAM1296, Concomitant drug (MEPM:SM = 2:1), read-out: MIC",0.031 µg/mL
same,MIC,"S. epidermidis IAM1296; Staphylococcus epidermidis, IAM1296, alone, read-out: MIC",0.016 µg/mL
same,MIC,"S. epidermidis IAM1296; Staphylococcus epidermidis, IAM1296, drug alone, S. epidermidis IAM1296, read-out: MIC alone",0.031 µg/mL
same,MIC,S. epidermidis IAM1296; alone,0.031 µg/mL
same,MIC alone,"S. epidermidis IAM1296; drug alone, S. epidermidis IAM1296",0.016 µg/mL
same,MIC,"E. faecalis ATCC19433; ATCC19433, Concomitant (AZT:SM = 1:1), E. faecalis ATCC19433, read-out: MIC concomitant",1 µg/mL
same,MIC,"E. faecalis ATCC19433; ATCC19433, Concomitant (BIPM:SM = 1:1), E. faecalis ATCC19433, read-out: MIC concomitant",1 µg/mL
same,MIC,"E. faecalis ATCC19433; ATCC19433, Concomitant (CAZ:SM = 1:1), E. faecalis ATCC19433, read-out: MIC concomitant",1 µg/mL
same,MIC,"E. faecalis ATCC19433; ATCC19433, Concomitant (CPFX:SM = 1:1), E. faecalis ATCC19433, read-out: MIC concomitant",0.5 µg/mL
same,MIC,"E. faecalis ATCC19433; ATCC19433, Concomitant (DRPM:SM = 1:1), E. faecalis ATCC19433, read-out: MIC concomitant",1 µg/mL
same,MIC,"E. faecalis ATCC19433; ATCC19433, Concomitant (IPM:SM = 1:1), read-out: MIC",0.5 µg/mL
same,MIC,"E. faecalis ATCC19433; ATCC19433, Concomitant (MEPM:SM = 1:1), read-out: MIC",1 µg/mL
same,MIC,"E. faecalis ATCC19433; ATCC19433, Concomitant (MEPM:SM = 1:2), read-out: MIC",1 µg/mL
same,MIC,"E. faecalis ATCC19433; ATCC19433, Concomitant (MEPM:SM = 1:4), read-out: MIC",1 µg/mL
same,MIC,"E. faecalis ATCC19433; ATCC19433, Concomitant (PAPM:SM = 1:1), E. faecalis ATCC19433, read-out: MIC concomitant",1 µg/mL
same,MIC,"E. faecalis ATCC19433; ATCC19433, Concomitant (PIPC:SM = 1:1), E. faecalis ATCC19433, read-out: MIC concomitant",0.5 µg/mL
